Experimental data taken from patent US20250235460A1, “COMBINATION THERAPY USING GLUCOSE-DEPENDENT INSULINOTROPIC POLYPEPTIDE RECEPTOR ANTAGONIST COMPOUNDS AND GLP-1 RECEPTOR AGONIST COMPOUNDS” (Pfizer Inc., priority 2024, published 2025).

Experiments:
human GLP-1R [1] = target: human GLP-1R (Homo sapiens, UniProt P43220, L260F); assay: CHO GLP-1R Clone C6 cAMP HTRF agonist assay (Assay 2, low receptor density); format: cell-based; settings: for EC50: CHO GLP-1R clone C6, cAMP HTRF, geometric mean; for Emax: CHO GLP-1R clone C6, arithmetic mean, relative to saturating GLP-1 (1 μM)
Description: In Table 5 and Table 6, assay data are presented to two (2) significant figures as the geometric mean (EC50s) and arithmetic mean (Emax) based on the number of replicates listed (Number). A blank cell means there was no data for that Example or the Emax was not calculated.

human GLP-1R [2] = target: human GLP-1R (Homo sapiens, UniProt P43220, G168S); assay: CHO GLP-1R Clone H6 cAMP HTRF agonist assay (Assay 1, high receptor density); format: cell-based; settings: for EC50: CHO GLP-1R clone H6, cAMP HTRF, geometric mean; for Emax: read-out: Assay 1 Emax (%)
Summary of the method: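 Averaging differs by parameter: a geometric mean for EC50 and an arithmetic mean for Emax, each over the stated replicate number.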

[3] = CHO GLP-1R clone H6, arithmetic mean, relative to saturating GLP-1 (1 μM)

human GLP-1R (Homo sapiens, UniProt P43220, G168S), sequence (P43220 24-463 G168S): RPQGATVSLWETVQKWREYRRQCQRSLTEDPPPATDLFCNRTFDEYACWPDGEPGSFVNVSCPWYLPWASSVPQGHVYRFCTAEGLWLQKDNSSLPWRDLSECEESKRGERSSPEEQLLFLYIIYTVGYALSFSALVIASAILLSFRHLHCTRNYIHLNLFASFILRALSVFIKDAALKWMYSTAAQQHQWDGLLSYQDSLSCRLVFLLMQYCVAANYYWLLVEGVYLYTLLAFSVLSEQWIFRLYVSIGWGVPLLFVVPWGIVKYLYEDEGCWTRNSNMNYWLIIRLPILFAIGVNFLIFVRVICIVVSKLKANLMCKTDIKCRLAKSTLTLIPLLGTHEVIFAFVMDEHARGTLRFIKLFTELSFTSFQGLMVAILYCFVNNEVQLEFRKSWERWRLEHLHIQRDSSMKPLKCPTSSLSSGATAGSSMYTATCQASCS
human GLP-1R (Homo sapiens, UniProt P43220, L260F), sequence (P43220 24-463 L260F): as the sequence (P43220 24-463 G168S) above, with S145G, L237F counted along it

Q: What does the source list for N#Cc1ccc(COc2cccc(C3CCN(Cc4nc5ccc(C(=O)O)cc5n4Cc4ccon4)CC3)n2)c(F)c1 [Compound 161B, 2-[(4-{6-[(4-cyano-2-fluorobenzyl)oxy]pyridin-2-yl}piperidin-1-yl)methyl]-1-(1,2-oxazol-3-ylmethyl)-1H-benzimidazole-6-carboxylic acid]?
A: EC50 (human GLP-1R [1]): 13 nM; Emax (human GLP-1R [1]): 100%; EC50 (human GLP-1R [2]): 1.1 nM; Emax (human GLP-1R [2]; [3]): 79%

Q: With CCn1cncc1Cn1c(CN2CCC(c3cccc(OCc4ccc(C#N)cc4F)n3)CC2)nc2ccc(C(=O)O)cc21 [Compound 162B, 2-[(4-{6-[(4-cyano-2-fluorobenzyl)oxy]pyridin-2-yl}piperidin-1-yl)methyl]-1-[(1-ethyl-1H-imidazol-5-yl)methyl]-1H-benzimidazole-6-carboxylic acid] as the compound, how does the EC50 (human GLP-1R [1]) read?
A: 7.4 nM

Q: What about the Emax (human GLP-1R [1]) of the same compound?
A: 94%

Q: What about the EC50 (human GLP-1R [2]) of the same compound?
A: 0.34 nM

Q: What about the Emax (human GLP-1R [2]; [3]) of the same compound?
A: 78%

Q: Which results are given for CCn1nncc1Cn1c(CN2CCC(c3cccc(OCc4ccc(C#N)cc4F)n3)CC2)nc2ccc(C(=O)O)cc21 [Compound 164B, 2-[(4-{6-[(4-cyano-2-fluorobenzyl)oxy]pyridin-2-yl}piperidin-1-yl)methyl]-1-[(1-ethyl-1H-1,2,3-triazol-5-yl)methyl]-1H-benzimidazole-6-carboxylic acid]?
A: EC50 (human GLP-1R [1]): 55 nM; Emax (human GLP-1R [1]): 86%; EC50 (human GLP-1R [2]): 3.2 nM

Q: With O=C(O)c1ccc2nc(CN3CCC(c4cccc(OCc5ccc(Cl)cc5F)n4)CC3)n(Cc3ncco3)c2n1 [Compound 167B, 2-[(4-{6-[(4-chloro-2-fluorobenzyl)oxy]pyridin-2-yl}piperidin-1-yl)methyl]-3-(1,3-oxazol-2-ylmethyl)-3H-imidazo[4,5-b]pyridine-5-carboxylic acid] as the compound, how does the EC50 (human GLP-1R [1]) read?
A: 350 nM

Q: What about the Emax (human GLP-1R [1]) of the same compound?
A: 77%

Q: What about the EC50 (human GLP-1R [2]) of the same compound?
A: 18 nM

Q: What about the Emax (human GLP-1R [2]; [3]) of the same compound?
A: 84%

Q: How did the EC50 (human GLP-1R [1]) turn out when N#Cc1ccc(COc2cccc(C3CCN(Cc4nc5ccc(C(=O)O)nc5n4Cc4ncco4)CC3)n2)c(F)c1 [Compound 168B, 2-[(4-{6-[(4-cyano-2-fluorobenzyl)oxy]pyridin-2-yl}piperidin-1-yl)methyl]-3-(1,3-oxazol-2-ylmethyl)-3H-imidazo[4,5-b]pyridine-5-carboxylic acid] was run?
A: 1700 nM

Q: And the Emax (human GLP-1R [1])?
A: 88%

Q: What about the “Assay 1 Emax (%)” value (human GLP-1R [2]; [3]) of the same compound?
A: 79%

Q: How did the EC50 (human GLP-1R [1]) turn out when COCCn1c(CN2CCC(c3cccc(OCc4ccc(Cl)cc4F)n3)CC2)nc2ccc(C(=O)O)c(F)c21 [Compound 170B, 2-[(4-{6-[(4-chloro-2-fluorobenzyl)oxy]pyridin-2-yl}piperidin-1-yl)methyl]-7-fluoro-1-(2-methoxyethyl)-1H-benzimidazole-6-carboxylic acid] was run?
A: 4000 nM

Q: And the Emax (human GLP-1R [1])?
A: 75%

Q: And the EC50 (human GLP-1R [2])?
A: 79 nM

Q: And the Emax (human GLP-1R [2]; [3])?
A: 81%

Q: For COCCn1c(CN2CCN(c3ccc(F)c(OCc4ccc(C#N)cc4)n3)C[C@@H]2C)nc2ccc(C(=O)O)cc21 [Compound 175B, 2-{[(2S)-4-{6-[(4-cyanobenzyl)oxy]-5-fluoropyridin-2-yl}-2-methylpiperazin-1-yl]methyl}-1-(2-methoxyethyl)-1H-benzimidazole-6-carboxylic acid], which EC50 (human GLP-1R [1]) is on record?
A: 2100 nM

Q: What about the Emax (human GLP-1R [1]) of the same compound?
A: 71%

Q: And the EC50 (human GLP-1R [2])?
A: 170 nM

Q: And the Emax (human GLP-1R [2]; [3])?
A: 78%

Q: For COCCn1c(CN2CCN(c3cccc(OCc4ccc(Cl)cc4F)n3)[C@@H](C)C2)nc2ccc(C(=O)O)cc21 [Compound 183B, 2-{[(3S)-4-{6-[(4-chloro-2-fluorobenzyl)oxy]pyridin-2-yl}-3-methylpiperazin-1-yl]methyl}-1-(2-methoxyethyl)-1H-benzimidazole-6-carboxylic acid], which EC50 (human GLP-1R [1]) is on record?
A: 3500 nM

Q: And the Emax (human GLP-1R [1])?
A: 90%

Q: And the EC50 (human GLP-1R [2])?
A: 180 nM

Q: What about the Emax (human GLP-1R [2]; [3]) of the same compound?
A: 78%

Q: Which EC50 (human GLP-1R [1]) does the source give for COCCn1c(CN2CCN(c3cccc(OCc4ccc(Cl)cc4F)n3)[C@H](C)C2)nc2ccc(C(=O)O)cc21 [Compound 184B, 2-{[(3R)-4-{6-[(4-chloro-2-fluorobenzyl)oxy]pyridin-2-yl}-3-methylpiperazin-1-yl]methyl}-1-(2-methoxyethyl)-1H-benzimidazole-6-carboxylic acid] here?
A: 43 nM

Q: What about the Emax (human GLP-1R [1]) of the same compound?
A: 84%

Q: What about the EC50 (human GLP-1R [2]) of the same compound?
A: 3.2 nM

Q: What about the Emax (human GLP-1R [2]; [3]) of the same compound?
A: 77%
